Measurements reported in PMC7522794, “Synthesis and evaluation of novel 2,4-disubstituted arylthiazoles against T. brucei” (RSC Medicinal Chemistry, 2019).

What was measured:
[1] = Cytotoxic activity against rat skeletal myoblast L6 cells (Alamar Blue); assay type: cell-based; details: rat, L6 cells (rat skeletal muscle line); cytotoxicity, 6 days incubation + 8 hours Alamar Blue
Protocol: (§1) Cytotoxicity against mammalian cells was assessed using microtitre plates. Briefly, L6 cells (a rat skeletal muscle line) were seeded at 1 × 10^4 mL^–1 in 200 μL of growth medium containing 7 different compound concentrations in a range previously established to encompass both the IC50 and IC90 values. The plates were incubated for 6 days at 37 °C and 20 μL Alamar Blue (Biosource UK Ltd) was then added to each well. After an additional 8 hours incubation, the fluorescence was determined using a FLUOstar Omega fluorescent plate reader (BMG Labtech). Inhibition of growth was calculated by comparison with control values and IC50 and IC90 values were determined in triplicate using linear regression analysis.

L6 cells = test: as above; assay type: cell-based; details: ratio of IC50 values obtained with L6 cells and T. brucei
Protocol: as §1

[2] = test system: Bloodstream form T. brucei (strain 427); test: Trypanocidal activity against bloodstream form T. brucei (Alamar Blue growth inhibition); assay type: cell-based, Trypanosoma brucei; details: Trypanosoma brucei, 48 hours + overnight Alamar Blue; for IC50: concentration that inhibits growth by 50%; for IC90: concentration that inhibits growth by 90%
Protocol: Bloodstream form T. brucei (strain 427) were cultured at 37 °C in modified Iscove's medium. Trypanocidal activity was assessed by growing parasites in microtiter plates in the presence of various drug concentrations. […] The plates were incubated for 48 hours at 37 °C and 20 μL Alamar Blue was then added to each well. After an additional overnight incubation, the fluorescence was determined. Inhibition of growth was calculated by comparison with control values and IC50 and IC90 values were determined in triplicate using linear regression analysis.

## Br.NCCc1nc(-c2ccc(C34CC5CC(CC(C5)C3)C4)cc2)cs1 [Compound 3c, 2-{4-[4-(1-Tricyclo[3.3.1.1^3,7]decyl)phenyl]thiazol-2-yl}ethanamine hydrobromide]
other
  melting point: 261 to 263 °C
[1]
  IC50: 4.16 ± 0.24 µM
L6 cells
  S.I. (selectivity index): 1.5
[2]
  IC50: 2.74 ± 0.29 µM
  IC90: 4.4 ± 0.07 µM

## O=C(NCCc1csc(-c2ccc(F)c(C34CC5CC(CC(C5)C3)C4)c2)n1)N1CCCCC1 [Compound 1j, N-{2-[2-(3-(1-Tricyclo[3.3.1.1^3,7]decyl)-4-fluorophenyl)thiazol-4-yl}ethyl)piperidine-1-yl-carboxamide]
[1]
  IC50: < 10.3 µM
L6 cells
  S.I. (selectivity index): <1
[2]
  IC50: 10.7 ± 0.3 µM
  IC90: 12.6 ± 0.2 µM

## NCCc1csc(-c2ccc(C34CC5CC(CC(C5)C3)C4)cc2)n1 [Compound 2a, 2-{2-[4-(1-Tricyclo[3.3.1.1^3,7]decyl)phenyl]thiazol-4-yl}ethan-1-amine]
[1]
  IC50: 4.08 ± 0.15 µM
L6 cells
  S.I. (selectivity index): 5.1
[2]
  IC50: 0.8 ± 0.03 µM
  IC90: 1.17 ± 0.01 µM

## Br.CN(C)CCc1nc(-c2ccc(C34CC5CC(CC(C5)C3)C4)cc2)cs1 [Compound 3d, 2-{4-[4-(1-Tricyclo[3.3.1.1^3,7]decyl)phenyl]thiazol-2-yl}-N,N-dimethylethan-1-amine dihydrochloride]
other
  melting point: 200 to 202 °C
[1]
  IC50: 3.19 ± 0.25 µM
L6 cells
  S.I. (selectivity index): 2.3

## CN(C)CCc1csc(-c2ccc(F)c(C34CC5CC(CC(C5)C3)C4)c2)n1 [Compound 1c, 2-{2-[3-(1-Tricyclo[3.3.1.1^3,7]decyl)-4-fluorophenyl]thiazol-4-yl}-N,N-dimethylethyl-1-amine]
[1]
  IC50: 1.53 ± 0.09 µM
L6 cells
  S.I. (selectivity index): 1.9
[2]
  IC50: 0.79 ± 0.02 µM
  IC90: 1.03 ± 0.01 µM

## Br.Nc1nc(-c2ccc(C34CC5CC(CC(C5)C3)C4)cc2)cs1 [Compound 3a, 4-[4-(1-Tricyclo[3.3.1.1^3,7]decyl)phenyl]thiazol-2-amine hydrobromide]
other
  melting point: 345 °C (dec.)
[1]
  IC50: 13.8 ± 1.6 µM
L6 cells
  S.I. (selectivity index): <1
[2]
  IC50: 22.5 ± 0.6 µM
  IC90: 30.5 ± 4.5 µM
